Results as given in ChEMBL document CHEMBL1201862, “PubChem BioAssay data set” (2004).
Activity calls are given as the source filed them.

Assays:
[1] = biological target: Luciferin 4-monooxygenase (Photinus pyralis, UniProt P08659); experiment: inhibition of purified Photinus pyralis luciferase – biochemical, luminescence, dose response (AID 1891)
[2] = Luminescence Cell-Based Dose Confirmation HTS to Identify Inhibitors of Platelet Dense Granule Release. [Related pubchem assays: 1663 (Primary HTS), 1678 (Summary of Project)]; assay type: functional
[3] = biological target: Cytochrome P450 2C19 (Homo sapiens, UniProt P33261); experiment: Cytochrome panel assay with activity outcomes. Panel member name: p450-cyp2c19 Compounds with AC50 equal or less than 10 uM are considered active; assay type: functional
[4] = viability of PTEN-deleted HCT116 cells – cell-based, HCT116 PTEN knockout, dose response (AID 1047); assay type: functional;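 note: HCT116 colon tumor cells with PTEN knocked out; cells exposed to compound for 60 hours before readout; potency for loss of cell viability measured by luminescence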
[5] = viability of HCT116 lacking mutant beta-catenin – cell-based, human colon tumor, dose response (AID 1045); assay type: functional;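 note: HCT116 colon tumor cells with beta catenin knocked out; cells exposed to compound for 60 hours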
[6] = biological target: Cytochrome P450 3A4 (Homo sapiens, UniProt P08684);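 note: CYP3A4 tested as one member of a cytochrome P450 panel screen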
[7] = biological target: T1, Heat shock factor protein 1 (Mus musculus, UniProt P38532); experiment: decrease of HSF1-responsive luciferase luminescence – cell-based, NIH3T3, dose retest, confirmation (AID 2382); assay type: functional;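 note: NIH3T3 fibroblasts with HSF1-driven luciferase reporter stressed by proteasome inhibitor MG132; luminescence from HSF1-driven luciferase expression after 8 hours of MG132 stress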
T1 sequence (P38532 whole entry): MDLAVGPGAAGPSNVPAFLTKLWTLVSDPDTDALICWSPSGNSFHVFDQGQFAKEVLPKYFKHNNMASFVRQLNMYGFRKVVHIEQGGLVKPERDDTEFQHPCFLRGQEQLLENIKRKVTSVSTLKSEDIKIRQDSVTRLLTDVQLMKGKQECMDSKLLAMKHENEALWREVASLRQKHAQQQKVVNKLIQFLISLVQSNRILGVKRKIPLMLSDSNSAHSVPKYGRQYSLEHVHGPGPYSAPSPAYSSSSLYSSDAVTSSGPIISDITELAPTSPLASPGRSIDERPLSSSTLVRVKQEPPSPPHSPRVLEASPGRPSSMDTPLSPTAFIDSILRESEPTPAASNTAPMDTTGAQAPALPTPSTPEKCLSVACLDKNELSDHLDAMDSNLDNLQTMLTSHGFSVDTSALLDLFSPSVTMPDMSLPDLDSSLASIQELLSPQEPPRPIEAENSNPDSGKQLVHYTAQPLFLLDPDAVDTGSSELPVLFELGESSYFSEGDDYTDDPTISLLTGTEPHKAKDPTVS

[8] = Luminescence Cell-Based Dose Retest to Confirm Inhibitors of Cancer Stem Cells. [Related pubchem assays (depositor defined):AID2717, AID2721]; assay type: functional; conditions: Homo sapiens
[9] = Luminescence Cell-Based Dose Response HTS to Identify Activators of Luciferase Translation or Activity in H4 […] Cells. [Related pubchem assays: 1829 (Project Summary), 1814 (Primary HTS)]; assay type: functional
[10] = Trypanosoma cruzi growth suppression in host cells – NIH3T3 host cells, beta-gal luminescence, confirmation (AID 2044); assay type: functional, cell-based;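 note: intracellular parasites grown in NIH/3T3 mouse fibroblasts as host cells; luminescent beta-galactosidase reporter signal from transgenic T. cruzi replicating inside host cells; inhibitors lower the luminescence signal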
[11] = NIH3T3 cell viability loss – ATP luminescence, mouse fibroblasts, counter-screen, dose response (AID 2010); assay type: functional, cell-based;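 note: cells exposed to compound for about 90 hours before reading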
[12] = tested on: INS1; experiment: INS-1E survival protection against cytokine death – cell-based, luminescence, retest, dose response (AID 449756); assay type: functional; conditions: Rattus norvegicus;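 note: cell death triggered by IL-1 beta plus TNF-alpha plus IFN-gamma mixture; protective hits raise ATP signal compared with cytokine alone wells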

Sequence of Luciferin 4-monooxygenase (P08659 whole entry): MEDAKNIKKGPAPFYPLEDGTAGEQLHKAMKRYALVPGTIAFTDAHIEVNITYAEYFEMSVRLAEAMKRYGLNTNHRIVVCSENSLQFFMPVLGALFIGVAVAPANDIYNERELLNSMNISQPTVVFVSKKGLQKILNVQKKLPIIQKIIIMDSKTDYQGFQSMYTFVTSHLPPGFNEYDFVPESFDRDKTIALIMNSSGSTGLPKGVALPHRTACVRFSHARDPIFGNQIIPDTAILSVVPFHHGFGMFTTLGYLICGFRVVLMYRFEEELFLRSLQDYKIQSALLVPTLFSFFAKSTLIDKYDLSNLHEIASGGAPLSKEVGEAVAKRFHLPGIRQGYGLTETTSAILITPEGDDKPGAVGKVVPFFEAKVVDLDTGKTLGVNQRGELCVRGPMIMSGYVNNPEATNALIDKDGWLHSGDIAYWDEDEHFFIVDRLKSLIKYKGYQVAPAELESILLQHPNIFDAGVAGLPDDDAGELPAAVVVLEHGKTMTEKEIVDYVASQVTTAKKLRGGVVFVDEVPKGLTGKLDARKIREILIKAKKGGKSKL
Sequence of Cytochrome P450 2C19 (P33261 whole entry): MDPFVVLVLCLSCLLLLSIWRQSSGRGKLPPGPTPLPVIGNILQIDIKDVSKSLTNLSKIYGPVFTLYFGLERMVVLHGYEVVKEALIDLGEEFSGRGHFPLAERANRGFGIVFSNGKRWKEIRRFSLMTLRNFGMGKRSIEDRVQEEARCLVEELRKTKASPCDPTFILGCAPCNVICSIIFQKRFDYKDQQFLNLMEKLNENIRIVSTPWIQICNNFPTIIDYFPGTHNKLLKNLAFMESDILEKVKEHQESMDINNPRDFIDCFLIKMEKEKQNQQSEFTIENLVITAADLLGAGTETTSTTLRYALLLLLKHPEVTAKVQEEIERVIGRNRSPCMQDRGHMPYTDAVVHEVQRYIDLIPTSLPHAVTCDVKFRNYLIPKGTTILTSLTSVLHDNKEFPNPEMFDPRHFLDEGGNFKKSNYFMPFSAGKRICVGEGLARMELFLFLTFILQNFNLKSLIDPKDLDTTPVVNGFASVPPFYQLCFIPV
Sequence of Cytochrome P450 3A4 (P08684 whole entry): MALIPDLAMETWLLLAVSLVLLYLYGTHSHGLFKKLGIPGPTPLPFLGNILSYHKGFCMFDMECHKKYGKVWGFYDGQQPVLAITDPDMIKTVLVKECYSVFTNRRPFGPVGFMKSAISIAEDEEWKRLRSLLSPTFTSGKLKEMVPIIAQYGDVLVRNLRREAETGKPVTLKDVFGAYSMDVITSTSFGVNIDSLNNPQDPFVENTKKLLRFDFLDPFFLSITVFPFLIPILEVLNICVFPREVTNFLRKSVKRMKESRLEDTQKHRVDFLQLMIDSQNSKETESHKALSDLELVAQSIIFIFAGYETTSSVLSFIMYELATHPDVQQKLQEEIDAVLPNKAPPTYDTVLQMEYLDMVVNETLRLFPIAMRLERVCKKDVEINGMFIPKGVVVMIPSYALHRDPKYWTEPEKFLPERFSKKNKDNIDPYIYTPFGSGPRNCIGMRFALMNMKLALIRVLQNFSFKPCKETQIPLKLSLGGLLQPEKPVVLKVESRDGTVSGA

## O=C(O)CC(NC(=O)C(c1ccccc1)c1ccccc1)c1ccco1 (stereo unspecified)
[1]
  EC50: > 112 µM (not active)
[2]
  EC50: > 112 µM (not active)

## CN(C)c1ncc2nc(-c3ccccc3)c(=O)n(C)c2n1
[3]; read-out: AC50
  AC50: 39.8 µM (inconclusive)

## COc1cc(CNc2ccc3[nH]c(O)nc3c2)ccc1OCC(=O)NC(C)(C)C
[2]
  EC50: 12.4 µM (active)

## C=C(C)COc1ccc2c(C)c(CC(=O)OC)c(=O)oc2c1C
[4]
  EC50: 81.2 µM (active)
[5]
  EC50: 31.9 µM (active)

## CC(C)NC(=O)N1CCCC2(CCN(C(=O)c3ccco3)CC2)C1
[6]
  AC50: 25.1 µM (inconclusive)

## COc1ccc(NC(=O)CN(C)CC(=O)Nc2ccc3c(c2)CCC3)cc1
[7]
  EC50: > 195 µM (not active)

## CN(C)c1ccc(/C=N/NC(=O)C2COc3ccccc3O2)o1 (stereo unspecified)
[7]
  EC50: > 195 µM (not active)

## CCCn1c(C)cc(=O)c2cc(NC(=O)c3cnccn3)ccc21
[4]
  EC50: 33.7 µM (active)
[5]
  EC50: 19.9 µM (active)

## [O-]/[N+](=C/c1ccc(F)cc1)c1ccc(Cl)cc1
[1]
  EC50: > 112 µM (not active)
[2]
  EC50: > 112 µM (not active)

## Cc1c(C=C2C(=O)N(C)C(=O)N(C)C2=O)c(=O)n(-c2ccccc2)n1C
[7]
  EC50: > 195 µM (not active)

## Cc1occc1-c1nnc(SCC(=O)Nc2ccccc2)n1C
[7]
  EC50: > 195 µM (not active)

## O=C(COc1ccc(Cl)cc1Cl)NN=C1c2ccccc2-c2ccccc21
[4]
  EC50: 7.45 µM (active)
[5]
  EC50: 6.99 µM (active)

## Cc1cccc(N(CC(=O)N2CCOCC2)S(C)(=O)=O)c1
[3]
  AC50: inconclusive

## Fc1cnc(N2CCc3ccccc32)nc1N1CCc2ccccc21
[4]
  EC50: 30 µM (active)
[5]
  EC50: 25.5 µM (active)

## COc1ccc(-c2nc3scc(-c4ccc(OC)c(OC)c4)c3c(=O)o2)cc1
[4]
  EC50: 24.7 µM (active)
[5]
  EC50: 16.4 µM (active)

## CCCCC(CC)CN1C(=O)/C(=C/c2c[nH]nc2-c2ccccc2)SC1=S (stereo unspecified)
[4]
  EC50: 21.3 µM (active)
[5]
  EC50: 21.1 µM (active)

## O=C(CC1Nc2ccccc2NC1=O)Nc1ccccc1NC(=O)CC1Nc2ccccc2NC1=O (stereo unspecified)
[7]
  EC50: > 195 µM (not active)

## O=S(=O)(N/N=C1/CC(c2ccccc2)Oc2ccccc21)c1ccc(Br)cc1 (stereo unspecified)
[8]
  AC50: 2.79 µM (active)

## CCCCn1c(=O)c(C(=O)NCc2ccc(Cl)cc2)c(O)c2ccccc21
[8]
  AC50: 5.25 µM (active)

## COc1ccc(CCn2c(=N)c(C(=O)NCC3CCCO3)cc3c(=O)n4ccccc4nc32)cc1OC (stereo unspecified)
[1]
  EC50: > 112 µM (not active)
[2]
  EC50: > 112 µM (not active)

## O=C1NC(=O)N(CCC2=CCCCC2)C(=O)/C1=C\NNc1ccccc1
[8]
  AC50: 2.46 µM (active)

## Cc1nnc2sc(-c3ccc(-c4ccc(Cl)c(C(F)(F)F)c4)o3)nn12
[1]
  EC50: > 112 µM (not active)
[2]
  EC50: > 112 µM (not active)

## Cc1sc2nc(CN3CCC(C)CC3)nc(Cl)c2c1C
[4]
  EC50: 18.5 µM (active)
[5]
  EC50: 14.5 µM (active)

## CC(C)(C)C(=O)OCc1nc(-c2ccc3c(c2)OCCO3)cs1
[7]
  EC50: > 195 µM (not active)

## CC(C)(C)NC(=O)Cn1nnc(-c2ccc(OCc3c(F)cccc3Cl)cc2)n1
[8]
  AC50: 1.33 µM (active)

## COc1cccc(Nc2ncc3nc(CCc4ccccc4)c(=O)n(CCC#N)c3n2)c1
[6]
  AC50: 2 µM (inconclusive)

## Cc1ccc(Oc2nc(CN3CCOCC3)nc3sc4c(c23)CCC(C)C4)cc1C (stereo unspecified)
[7]
  EC50: > 195 µM (not active)
[8]
  AC50: 6.74 µM (active)

## O=C(CSc1nc(-c2ccccc2)cc(C(F)(F)F)n1)c1cccc([N+](=O)[O-])c1
[8]
  AC50: 5.41 µM (active)

## CCCSc1nnc(CSc2nc3nc(C)cc(C)n3n2)o1
[3]; read-out: AC50
  AC50: 15.8 µM (inconclusive)

## Cc1nc(SCC(=O)NCC2CCCO2)nc(O)c1C (stereo unspecified)
[7]
  EC50: > 195 µM (not active)

## CC1CCCN(C(=O)C2(NC(=O)Nc3cccc(F)c3)CCCCC2)C1 (stereo unspecified)
[7]
  EC50: > 195 µM (not active)

## Cc1ccc2nc(-c3ccc(NS(=O)(=O)c4c(C)n(C)c(=O)n(C)c4=O)cc3)sc2c1
[9]
  EC50: 2.06 µM (active)

## CN1CCN(c2ncc3nc(-c4cccc(C#N)c4)c(=O)n(Cc4ccc(F)cc4)c3n2)CC1
[3]; read-out: AC50
  AC50: 10 µM (inconclusive)

## CCCn1c(SCC(=O)N2CCCC(C)C2)nnc1-c1ccccn1 (stereo unspecified)
[1]
  EC50: > 112 µM (not active)
[2]
  EC50: > 112 µM (not active)

## Cc1ccc(C)c(Nc2nc(N)c3ccccc3n2)c1
[1]
  EC50: 12.2 µM (active)
[2]
  EC50: 11 µM (active)

## CCc1ccc(N(C(=O)c2csnn2)C(C(=O)NC(C)(C)C)c2ccncc2)cc1 (stereo unspecified)
[3]; read-out: AC50
  AC50: 2.82 µM (inconclusive)

## COc1ccc(-c2nc(NC(=O)c3cc(C(C)(C)C)nn3C)sc2C)cc1
[10]
  EC50: 1.76 µM (active)
[11]
  EC50: 8.58 µM (active)
[8]
  AC50: 7.12 µM (active)
[12]
  AC50: 10.2 µM (active)

## Cc1ccc(C(=O)Nc2ccc(Br)c(C(F)(F)F)c2)cc1
[4]
  EC50: 19.7 µM (active)
[5]
  EC50: 23.8 µM (active)

## COc1cccc(-c2nnc(-c3ccco3)o2)c1
[1]
  EC50: > 112 µM (not active)
[2]
  EC50: 40.9 µM (active)

## O=C(/C=C/c1ccc(Br)o1)NCCCN1CCOCC1
[7]
  EC50: > 195 µM (not active)

## CCOc1ccc(NC(=O)Nc2cc(C)ccc2F)cc1
[1]
  EC50: 1.02 µM (active)
[2]
  EC50: 1.81 µM (active)

## Cn1c(SCC(=O)N=Nc2c(O)[nH]c3ccccc23)nc2ccccc21
[1]
  EC50: > 112 µM (not active)
[2]
  EC50: > 112 µM (not active)

## Cc1ccc(-c2nc3cccnc3o2)cc1NC(=O)COc1ccc(Cl)cc1C
[4]
  EC50: 5.15 µM (active)
[5]
  EC50: 14.6 µM (active)

## CCOC(=O)C1=C(CSc2nc3ccccc3s2)NC(=O)NC1c1cccc([N+](=O)[O-])c1 (stereo unspecified)
[3]; read-out: AC50
  AC50: 1.58 µM (inconclusive)

## Nn1c(SCC(=O)NC2CCCC2)nnc1-c1ccccc1F
[7]
  EC50: > 195 µM (not active)

## COc1ccc(/C=N/Nc2ncccc2[N+](=O)[O-])c(OC)c1
[1]
  EC50: 2.42 µM (active)
[2]
  EC50: 2.57 µM (active)

## COc1cc([C@@H]2c3cc4c(cc3[C@@H](O)[C@H]3COC(=O)[C@H]23)OCO4)cc(OC)c1O[Si](C)(C)C(C)(C)C
[8]
  AC50: 3.64 µM (active)

## O=c1c2ccccc2nc(COc2ccccc2)n1/N=C/c1c[nH]nc1-c1ccccc1
[4]
  EC50: 19.6 µM (active)
[5]
  EC50: 24.5 µM (active)

## CN(C)c1ccc(CNC(=O)c2cc(S(=O)(=O)N3CCOCC3)cn2C)cc1
[1]
  EC50: > 112 µM (not active)
[2]
  EC50: > 112 µM (not active)

## COc1ccc(NCc2nnc(SCC(=O)Nc3cc(C(F)(F)F)ccc3Cl)o2)cc1
[7]
  EC50: > 195 µM (not active)

## COc1cccc(NC(S)=NN2CCN(C)CC2)c1
[3]; read-out: AC50
  AC50: 28.2 µM (inconclusive)

## Fc1ccc(-c2nc3c(-c4ccc(Cl)cc4)cnn3cc2CCN2CCOCC2)cc1
[7]
  EC50: > 195 µM (not active)

## Cc1ccc2[nH]c(/C(C#N)=C\c3ccc(Oc4ccc([N+](=O)[O-])cn4)cc3)nc2c1
[4]
  EC50: 76.4 µM (active)
[5]
  EC50: 46.9 µM (active)

## CCN(CC)C(=O)CN1C(=O)/C(=C/c2ccccc2)SC1=S
[7]
  EC50: > 195 µM (not active)

## CCc1ccc(/C=N/NC(=O)c2nnn(-c3nonc3N)c2CN2CCOCC2)cc1
[1]
  EC50: > 112 µM (not active)
[2]
  EC50: 52.9 µM (active)

## O=C(Oc1ccccc1Cl)c1ccc(-n2cncn2)nc1
[7]
  EC50: > 195 µM (not active)

## NC(=O)C1CCN(CC(=O)Nc2nc(-c3ccccc3)cs2)CC1
[7]
  EC50: > 195 µM (not active)

## Oc1nc2cc3c(cc2cc1C(c1nnnn1C1CCCC1)N1CCSCC1)OCCO3 (stereo unspecified)
[4]
  EC50: 28.9 µM (active)
[5]
  EC50: 94.3 µM (active)
